Measurements taken from US9896458B2, “Compounds, compositions and methods” (Denali Therapeutics Inc., priority 0216, dated 2018).
Where two headings read alike, the source gives them in different places. Values belong to the compound of their own block, whether it stands above or below them.

How the values were obtained:
[1] = in vivo
[2] = tested on: TNF/zVAD induced temperature loss; conditions: dose of 30 mg/kg, from WO 2014/125444 Table 2; cited from earlier work
[3] = in vivo; remark: listed apart in the source
[4] = Metabolic stability (hepatocytes); format: in vitro ADME; conditions: human cryopreserved hepatocytes, well-stirred model
Text: Hepatic clearance is expressed as mL/min/kg.

[5] = tested on: TNF/zVAD induced temperature loss; assay: TNF-driven systemic inflammatory response syndrome model (TNF/zVAD); format: in vivo; conditions: mice, 5 mg/kg oral, 15 minutes before intravenous TNF/zVAD
Text: The in vivo efficacy of compounds can be determined in mice using a TNF-driven systemic inflammatory response syndrome model as described by Duprez et. al. (2011, Immunity 35(6), 908-918) and Berger et. al. (2015, Cell Death Disc. 1, 15009). In this model system TNF/zVAD (tumor necrosis factor/Z-Val-Ala-DL-Asp-fluoromethylketone, a caspase inhibitor) treatment results in temperature loss and the production of several inflammatory cytokines. The ability of a test compound to inhibit these inflammatory effects can be measured in this model by dosing mice with test compound 15 minutes before administration of TNF/zVAD and measuring the inflammatory response. The dose required to inhibit the inflammatory response is a measure of the compounds efficacy at that dose. Using this model, Compound 42 was orally pre-dosed at 5 mg/kg 15 minutes before intraveneous administration of TNF/zVAD and temperature loss in the mice was measured by an implanted temperature chip. […] The decrease in dosing has a number of important potential advantages, including requiring less frequent administration to a patient, increased patient compliance, and improved safety profile such as lower toxicities while achieving similar efficacy.

[6] = cynomolgus monkey, in vivo
[7] = tested on: FADD-deficient Jurkat cells; assay: cellular necroptosis assay (human TNFα induced); format: cell-based; conditions: 48 h, human TNFα 10 ng/mL, viability after 48 h, CellTiter-Glo, read-out: Cell IC50
[8] = male, Sprague-Dawley Crl:CD(SD)

Structure (SMILES): CN1C(=O)[C@@H](NC(=O)c2nnc(Cc3ccccc3)[nH]2)COc2ccccc21 [A, reference compound]
Dog unbound CL ([1]; male, Beagle): 240 mL/min/kg | inhibition of temperature loss [2]: 93% | Rat unbound CL [3, 8]: 77 mL/min/kg | Human hepatocyte CLhep Avg [4]: 6.8 mL/min/kg

Structure (SMILES): CN1C(=O)[C@@H](NC(=O)c2nnc(Cc3ccccc3)o2)COc2ccccc21 [B, reference compound]
Human hepatocyte CLhep Avg [4]: 14 mL/min/kg

Structure (SMILES): CN1C(=O)[C@@H](NC(=O)c2cc(Cc3ccccc3)on2)COc2ccccc21 [C, reference compound]
Human hepatocyte CLhep Avg [4]: 19 mL/min/kg

Structure (SMILES): CN1C(=O)[C@@H](NC(=O)c2cc(C3(c4ccccc4)CC3)on2)COc2ccccc21 [Example 8, (S)-N-(5-methyl-4-oxo-2,3,4,5-tetrahydrobenzo[b][1,4]oxazepin-3-yl)-5-(1-phenylcyclopropyl)isoxazole-3-carboxamide]
Rat unbound CL [3, 8]: 3700 mL/min/kg

Structure (SMILES): CN1C(=O)[C@@H](NC(=O)c2nnc(Cc3ccccc3)[nH]2)COc2cccnc21 [Example 42, (S)-5-benzyl-N-(5-methyl-4-oxo-2,3,4,5-tetrahydropyrido[3,2-b][1,4]pxazepin-3-yl)-4H-1,2,4-triazole-3-carboxamide]
inhibition of temperature loss [5]: 96% | Human hepatocyte CLhep Avg [4]: 0.8 mL/min/kg

Structure (SMILES): CN1C(=O)[C@@H](NC(=O)c2nc(Cc3ccccc3)n[nH]2)COc2cccnc21 [Example 42]
Dog unbound CL [1]: 64 mL/min/kg | Rat unbound CL [3]: 22 mL/min/kg | Cyno unbound CL [6]: 42 mL/min/kg

Structure (SMILES): CN1C(=O)[C@@H](NC(=O)c2nnc(C3(c4ccccc4)CC3)o2)COc2cccnc21 [Example 66, (S)-N-(5-methyl-4-oxo-2,3,4,5-tetrahydropyrido[3,2-b][1,4]oxazepin-3-yl)-5-(1-phenylcyclopropyl)-1,3,4-oxadiazole-2-carboxamide]
Dog unbound CL ([1]; male, Beagle): 36 mL/min/kg | Human hepatocyte CLhep Avg [4]: 6.3 mL/min/kg

Structure (SMILES): O=C(N[C@H]1COc2ccccc2-n2ccnc21)c1cc(Cc2ccccc2)on1 [Example 70A, (R)-5-benzyl-N-(4,5-dihydrobenzo[b]imidazo[1,2-d][1,4]oxazepin-4-yl)isoxazole-3-carboxamide]
IC50 [7]: 0.1 to 1000 nM

Structure (SMILES): CN1C(=O)[C@@H](NC(=O)c2cn(Cc3ccccc3)nn2)[C@H]2C[C@H]2c2nccnc21 [Example 195, 1-benzyl-N-((7S,7aS,8aR)-5-methyl-6-oxo-5,6,7,7a,8,8a-hexahydrocyclopropa[d]pyrazino[2,3-b]azepin-7-yl)-1H-1,2,3-triazole-4-carboxamide]
IC50 [7]: 16 nM

Second part, the compound after the results:

Rat unbound CL [3, 8]: 91 mL/min/kg | Cyno unbound CL ([6]; male): 93 mL/min/kg | Human hepatocyte CLhep Avg [4]: 9.1 mL/min/kg
Structure (SMILES): CN1C(=O)[C@@H](NC(=O)c2nnc(Cc3ccccc3)[nH]2)[C@H]2C[C@H]2c2cccnc21 [Example 75A, 5-benzyl-N-((1aS,2S,8bR)-4-methyl-3-oxo-1,1a,2,3,4,8b-hexahydrocyclopropa[d]pyrido[2,3-b]azepin-2-yl)-4H-1,2,4-triazole-3-carboxamide]

Human hepatocyte CLhep Avg [4]: 19 mL/min/kg
Structure (SMILES): CN1C(=O)[C@@H](NC(=O)c2cc(C3(c4ccccc4)CC3)on2)COc2cccnc21 [Example 77, (S)-N-(5-methyl-4-oxo-2,3,4,5-tetrahydropyrido[3,2-b][1,4]oxazepin-3-yl)-5-(1-phenylchclopropyl)isoxazole-3-carboxamide]

Cyno unbound CL ([6]; male): 82 mL/min/kg | Human hepatocyte CLhep Avg [4]: 1.0 mL/min/kg
Structure (SMILES): O=C(N[C@@H]1C(=O)Nc2c(F)cc(F)cc2[C@@H]2C[C@H]12)c1nnc(Cc2ccccc2)[nH]1 [Example 83A, 5-benzyl-N-((1aS,2S,8bR)-5,7-difluoro-3-oxo-1,1a,2,3,4,8b-hexahydrobenzo[b]cyclopropa[d]azepin-2-yl)-4H-1,2,4-triazole-3-carboxamide]

Rat unbound CL [3, 8]: 420 mL/min/kg
Structure (SMILES): C[C@H]1Oc2cccnc2N(C)C(=O)[C@H]1NC(=O)c1nn(Cc2ccccc2)cc1F [Example 92, 1-benzyl-N-((2R,3S)-2,5-dimethyl-4-oxo-2,3,4,5-tetrahydropyrido[3,2-b][1,4]oxazepin-3-yl)-4-fluoro-1H-pyrazole-3-carboxamide]

Rat unbound CL [3, 8]: 44 mL/min/kg | Cyno unbound CL ([6]; male): 40 mL/min/kg
Structure (SMILES): C[C@H]1Oc2cccnc2N(C)C(=O)[C@H]1NC(=O)c1nnc(Cc2ccccc2)[nH]1 [Example 94, 5-benzyl-N-((2R,3S)-2,5-dimethyl-4-oxo-2,3,4,5-tetrahydropyrido[3,2-b][1,4]oxazepin-3-yl)-4H-1,2,4-triazole-3-carboxamide]

Rat unbound CL [3, 8]: 100 mL/min/kg | Cyno unbound CL ([6]; male): 140 mL/min/kg
Structure (SMILES): C[C@H]1Oc2cccnc2N(C)C(=O)[C@H]1NC(=O)c1nnc(Cc2ccccc2)o1 [Example 134, 5-Benzyl-N-((2R,3S)-2,5-dimethyl-4-oxo-2,3,4,5-tetrahydropyrido[3,2-b][1,4]oxazepin-3-yl)-1,3,4-oxadiazole-2-carboxamide]

Rat unbound CL [3, 8]: 61 mL/min/kg | Cyno unbound CL ([6]; male): 39 mL/min/kg
Structure (SMILES): CN1C(=O)[C@@H](NC(=O)c2nnc(Cc3ccccc3)o2)COc2cccnc21 [Example 146, (S)-5-benzyl-N-(5-methyl-4-oxo-2,3,4,5-tetrahydropyrido[3,2-b][1,4]oxazepin-3-yl)-1,3,4-oxadiazole-2-carboxamide]

Rat unbound CL [3, 8]: 32 mL/min/kg
Structure (SMILES): CN1C(=O)[C@@H](NC(=O)c2ncn(Cc3cccc(C#N)c3)n2)COc2cccnc21 [Example 171, (S)-1-(3-cyanobenzyl)-N-(5-methyl-4-oxo-2,3,4,5-tetrahydropyrido[3,2-b][1,4]oxazepin-3-yl)-1H-1,2,4-triazole-3-carboxamide]

Rat unbound CL [3]: 65 mL/min/kg
Structure (SMILES): C[C@H]1Oc2cccnc2N(C)C(=O)[C@H]1NC(=O)c1ncn(Cc2cccc(C#N)c2)n1 [Example 172]

Rat unbound CL [3]: 55 mL/min/kg | Cyno unbound CL [6]: 58 mL/min/kg
Structure (SMILES): CN1C(=O)[C@@H](NC(=O)c2nnc(Cc3ccccc3)o2)[C@H]2C[C@H]2c2nccnc21 [Example 177A]
